Values quoted from earlier work as cited in paper PMC6311893, “Computational prediction of plasma protein binding of cyclic peptides from small molecule experimental data using sparse modeling techniques” (BMC Bioinformatics, 2018).

system: plasma protein; conditions: fraction bound to plasma protein; small molecule dataset, sheet 1-SM (Set Dte = test, Dtr = training); ref Ingle et al.; cited from earlier work

In order of rising “PPB (fb)” value:
1. NCCCNCCSP(=O)(O)O [amifostine]  0.04
2. C[C@@H](O)[C@H]1C(=O)N2C(C(=O)O)=C(S[C@H]3C[C@@H](C(=O)N4CC[C@H](NC(=O)CNC(=N)N)C4)N(C)C3)[C@H](C)[C@H]12 [Tomopenem]  0.09
3. C[C@H]1O[C@H](O[C@H]2[C@H](O)[C@@H](O)[C@@H](O[C@H]3[C@H](O)[C@@H](O)C(O)O[C@@H]3CO)O[C@@H]2CO)[C@H](O)[C@@H](O)[C@@H]1N[C@H]1C=C(CO)[C@@H](O)[C@H](O)[C@H]1O (stereo partly shown) [acarbose]  0.15
4. Sc1ncnc2nc[nH]c12 [Mercaptopurine]  0.17
5. O=C(O)CCCC[C@@H]1SC[C@@H]2NC(=O)N[C@@H]21 [biotin]  0.2
6. O=C1CCC(Cc2ccc(O)c(O)c2)O1 (stereo not shown)  0.35
7. NS(=O)(=O)Cc1noc2ccccc12 [zonisamide]  0.4
8. C[C@H](N[C@@H](CCc1ccccc1)C(=O)O)C(=O)N1Cc2ccccc2C[C@H]1C(=O)O [Quinaprilat]  0.68
9. CC(NC(C)(C)C)C(=O)c1cccc(Cl)c1 (stereo not shown) [bupropion]  0.75
10. Cc1cccc(C)c1NC(=O)C1CCCCN1C (stereo not shown) [Mepivacaine]  0.77
11. Cc1nc2n(c(=O)c1CCN1CCC(c3noc4cc(F)ccc34)CC1)CCCC2O (stereo not shown) [9-Hydroxyrisperidone]  0.77
12. C=C1CC[C@H](O)C/C1=C/C=C1\CCC[C@]2(C)[C@@H]([C@H](C)CCCC(C)(C)O)CC[C@@H]12 [calcifediol]  0.8
13. O=C1NCCN1c1ncc([N+](=O)[O-])s1 [niridazole]  0.85
14. CCN(CC)Cc1cc(Nc2ccnc3cc(Cl)ccc23)ccc1O [amodiaquine]  0.9
15. CN(C)c1nc(N(C)C)nc(N(C)C)n1 [altretamine]  0.94
16. C#CC1(O)CC[C@H]2[C@@H]3CCC4=CC(=O)CC[C@@H]4[C@H]3CC[C@@]21CC (stereo partly shown) [norgestrel]  0.97
17. CCC(C)(C)NCC(O)COc1ccccc1C(=O)CCc1ccccc1 (stereo not shown) [Diprafenone]  0.98
18. CC(C)(Oc1ccc(Cl)cc1)C(=O)O [clofibric acid]  0.98
19. CCOC(=O)/C=C(C)/C=C/C=C(C)/C=C/c1c(C)cc(OC)c(C)c1C [etretinate]  0.99
20. O=C(O)[C@@H]1C[C@@H](C2CCCCC2)CN1C(=O)CP(=O)(O)CCCCc1ccccc1 [Fosinoprilat]  0.99
21. CCCc1oc(CCC(=O)O)c(C(=O)O)c1C  0.99

same assay, conditions: fraction bound to plasma protein; small molecule dataset, sheet 1-SM, Set Dtr; ref Ingle et al.; cited from earlier work

In order of falling “PPB (fb)” value:
1. CCN(CC)C(=O)/C(C#N)=C/c1cc(O)c(O)c([N+](=O)[O-])c1 [Entacapone]  0.98
2. CC(C)(C)NC(=O)[C@H]1CC[C@H]2[C@@H]3CC=C4C=C(C(=O)O)CC[C@]4(C)[C@H]3CC[C@]12C [Epristeride]  0.97
3. Cc1onc(-c2c(F)cccc2Cl)c1C(=O)N[C@@H]1C(=O)N2[C@@H]1SC(C)(C)[C@@H]2C(=O)O [Flucloxacillin]  0.95
4. O=C(CCCN1CCC(O)(c2ccc(Cl)cc2)CC1)c1ccc(F)cc1 [Haloperidol]  0.92
5. CCC(=O)OCC(=O)[C@@]1(OC(=O)CC)[C@@H](C)C[C@H]2[C@@H]3CCC4=CC(=O)C=C[C@]4(C)[C@@]3(Cl)[C@@H](O)C[C@@]21C [Beclomethasone dipropionate]  0.87
6. CN1CCCC(n2nc(Cc3ccc(Cl)cc3)c3ccccc3c2=O)CC1 (stereo not shown) [Azelastine]  0.85
7. CCOC(=O)Nc1ccc(NCc2ccc(F)cc2)nc1N [Flupirtine]  0.82
8. CSc1ccc(C(=O)c2[nH]c(=O)[nH]c2C)cc1 [Fenoximone]  0.74
9. COc1ccc(C(=O)Nc2ccccc2CCC2CCCCN2C)cc1 (stereo not shown) [Encainide]  0.72
10. Cc1cccc(C)c1OCC(C)N (stereo not shown) [Mexiletine]  0.63
11. CN(C)CCc1c[nH]c2ccc(CS(=O)(=O)N3CCCC3)cc12 [Almotriptan]  0.37
12. CN/C(=N/CCSCc1nc[nH]c1C)NC#N [Cimetidine]  0.2

same assay, conditions: fraction bound to plasma protein; small molecule dataset, sheet 1-SM; ref Ingle et al.; cited from earlier work

In order of falling “PPB (fb)” value:
1. O=C1Cc2cc(CCN3CCN(c4nsc5ccccc45)CC3)c(Cl)cc2N1 [Ziprasidone]  0.99
2. C=CC[C@@H]1/C=C(\C)C[C@H](C)C[C@H](OC)[C@H]2O[C@@](O)(C(=O)C(=O)N3CCCC[C@H]3C(=O)O[C@H](/C(C)=C/[C@@H]3CC[C@@H](O)[C@H](OC)C3)[C@H](C)[C@@H](O)CC1=O)[C@H](C)C[C@@H]2OC [Tacrolimus]  0.99
3. O=C(O)Cc1ccccc1Oc1ccc(Cl)cc1Cl [fenclofenac]  0.99
4. C#CCCCC(=O)c1cc(C(C)(C)C)c(O)c(C(C)(C)C)c1 [tebufelone]  0.99
5. CCOc1cc(CC(=O)N[C@@H](CC(C)C)c2ccccc2N2CCCCC2)ccc1C(=O)O [Repaglinide]  0.98
6. CC(Oc1ccc(Cl)c(Cl)c1)C(=O)NC1C(=O)N2C1SC(C)(C)C2C(=O)O (stereo not shown) [penicillin58]  0.97
7. C[C@]12CCC(=O)C=C1[C@@H]1C[C@@H]1[C@H]1[C@@H]3[C@@H]4C[C@@H]4[C@@]4(CCC(=O)O4)[C@@]3(C)CC[C@@H]12 [drospirenone]  0.97
8. CC(C)(C)NC[C@H](O)COc1ccccc1C1CCCC1 [penbutolol]  0.95
9. O=C(CCCN1CC=C(n2c(=O)[nH]c3ccccc32)CC1)c1ccc(F)cc1 [droperidol]  0.95
10. CNCCC(Oc1ccc(C(F)(F)F)cc1)c1ccccc1 (stereo not shown) [fluoxetine]  0.95
11. CSc1ccc(/C=C2/C(C)=C(CC(=O)O)c3cc(F)ccc32)cc1 [Sulindac sulfide]  0.94
12. CN1CCN2c3ccccc3Cc3ccccc3C2C1 (stereo not shown) [mianserin]  0.93
13. CCCC(CC)C(CCC)C(=O)NC1C(=O)N2C1SC(C)(C)C2C(=O)O (stereo not shown) [penicillin4]  0.93
14. CC(Oc1ccc(Cl)cc1)C(=O)NC1C(=O)N2C1SC(C)(C)C2C(=O)O (stereo not shown) [penicillin42]  0.92
15. COC1=C(OC)C(=O)C(CCCCCCCCCCO)=C(C)C1=O [idebenone]  0.9
16. C=C1C[C@@H]2[C@H](CC[C@]3(C)C(=O)CC[C@@H]23)[C@@]2(C)C=CC(=O)C=C12 [exemestane]  0.9
17. OCCN1CCN(CCCN2c3ccccc3C=Cc3ccccc32)CC1 [opipramol]  0.9
18. O=C1[C@H](CC[C@H](O)c2ccc(F)cc2)[C@@H](c2ccc(O)cc2)N1c1ccc(F)cc1 [Ezetimibe]  0.9
19. CC(=O)C1CCC2C3CC=C4CC(O)CCC4(C)C3CCC12C (stereo not shown) [Pregnenolone]  0.8
20. COc1cc(NC(C)CCCN)c2ncccc2c1 (stereo not shown) [primaquine]  0.8
21. CCC(Cc1c(I)cc(I)c(N)c1I)C(=O)O (stereo not shown) [iopanoic acid]  0.79
22. CC(Cc1ccc(C(C)C(=O)NS(C)(=O)=O)cc1)C(=O)O (stereo not shown) [JMC_10]  0.7
23. CN(CC1(C)CCCO1)S(=O)(=O)c1ccc(Cl)c(S(N)(=O)=O)c1 (stereo not shown) [mefruside]  0.65
24. CCC[C@H](N[C@@H](C)C(=O)N1[C@H](C(=O)O)C[C@@H]2CCCC[C@@H]21)C(=O)OCC [perindopril]  0.6
25. Nc1nc(N)c2nc(-c3ccccc3)c(N)nc2n1 [Triamterene]  0.59
26. CCCCOCC(=O)NC1C(=O)N2C1SC(C)(C)C2C(=O)O (stereo not shown) [penicillin7]  0.59
27. COc1cc2c(cc1OC)CN(C(=O)[C@H](C)N[C@@H](CCc1ccccc1)C(=O)O)[C@H](C(=O)O)C2 [moexiprilat]  0.5
28. Clc1ccc2nsnc2c1NC1=NCCN1 [Tizanidine]  0.3
29. CCOCCC(=O)NC1C(=O)N2C1SC(C)(C)C2C(=O)O (stereo not shown) [penicillin11]  0.25
30. Nc1n[n+]([O-])c2ccccc2[n+]1[O-] [Tirapazamine]  0.19
31. Cc1cccc(C)c1NC(=O)C(C)N (stereo not shown) [Tocainide]  0.13

same assay, conditions: plasma; cited from earlier work

In order of falling “PPB (fb)” value:
1. ClC1=C(Cl)[C@]2(Cl)[C@@H]3[C@@H]4C[C@@H]([C@H]5O[C@@H]45)[C@@H]3[C@@]1(Cl)C2(Cl)Cl [dieldrin]  0.99
2. flurazepam  0.97
3. Cc1ncc2n1-c1ccc(Cl)cc1C(c1ccccc1F)=NC2 [Midazolam]  0.97
4. CC(=O)[C@H]1CC[C@H]2[C@@H]3C=CC4=CC(=O)CC[C@@]4(C)[C@@H]3CC[C@]12C [dydrogesterone]  0.97
5. quinagolide  0.9
6. Brotizolam  0.9
7. N[C@@H](Cc1ccc(N(CCCl)CCCl)cc1)C(=O)O [Melphalan]  0.88
8. O=C1CN=C(c2ccccc2Cl)c2cc([N+](=O)[O-])ccc2N1 [Clonazepam]  0.85
9. CCC(OC(C)=O)C(CC(C)N(C)C)(c1ccccc1)c1ccccc1 (stereo not shown) [laam]  0.8
10. CC(=O)OC1CC(OC2C(O)CC(OC3C(O)CC(OC4CCC5(C)C(CCC6C5CCC5(C)C(C7=CC(=O)OC7)CCC65O)C4)OC3C)OC2C)OC(C)C1O (stereo not shown) [acetyldigitoxin]  0.8
11. CCC1(CC)C(=O)NCC(C)C1=O (stereo not shown) [methyprylon]  0.6
12. CCCC(C)C1(CC)C(=O)NC(=O)NC1=O (stereo not shown) [Pentobarbital]  0.56
13. CC(C)(C)NCC(O)c1cc(Cl)c(N)c(Cl)c1 (stereo not shown) [clenbuterol]  0.5
14. CCCN(CCC)CCc1cccc2c1CC(=O)N2 [ropinirole]  0.4
15. CCOC(=O)[C@@H]1C2CCC(C[C@@H]1OC(=O)c1ccccc1)N2C (stereo partly shown) [Cocaethylene]  0.36
16. CCCCC1(CC)C(=O)NC(=O)NC1=O [butobarbital]  0.26
17. COc1ccc2c3c1O[C@H]1[C@@H](O)C=C[C@H]4[C@@H](C2)N(C)CC[C@@]341 [Codeine]  0.21
18. Gabapentin  0.02
19. CO [methanol]  0
20. C[C@@H]1O[C@@H](O[C@H]2C[C@@H](O)[C@]3(CO)[C@H]4[C@H](O)C[C@]5(C)[C@@H](C6=CC(=O)OC6)CC[C@]5(O)[C@@H]4CC[C@]3(O)C2)[C@H](O)[C@H](O)[C@H]1O [ouabain]  0
21. idoxuridine  0
